Data published in ChEMBL document CHEMBL1140011, “Discovery of cyclopentane- and cyclohexane-trans-1,3-diamines as potent melanin-concentrating hormone receptor 1 antagonists” (Bioorg Med Chem Lett, 2007).
pIC50: −log10 of the molar value.

Key:
[1] = target: T1, Melanin-concentrating hormone receptor 1 (Homo sapiens, UniProt Q99705); experiment: Displacement of [125I]MCH from human MCHR1 expressed in HEK293 cells; format: cell-based
[2] = Metabolic stability assessed as intrinsic clearance in human liver microsomes; format: ADME, Microsome
[3] = target: T1, Melanin-concentrating hormone receptor 1; experiment: Antagonist activity at human MCHR1 expressed in HEK293 cells assessed as [35S]GTP-gamma-S accumulation; format: functional, cell-based
Mus musculus = experiment: Cmax in C57BL/6J mouse brain at 20 umol/kg, iv and 20 umol/kg, po; format: ADME, organism-based; conditions: in vivo
[4] = Tmax in C57BL/6J mouse plasma at 20 umol/kg, iv and 20 umol/kg, po; format: ADME, organism-based
[5] = Cmax in C57BL/6J mouse plasma at 20 umol/kg, iv and 20 umol/kg, po; format: ADME, organism-based
[6] = Oral bioavailability in C57BL/6J mouse at 20 umol/kg; format: ADME, organism-based; conditions: in vivo
[7] = Half life in C57BL/6J mouse plasma at 20 umol/kg, iv and 20 umol/kg, po; format: ADME, organism-based
[8] = Volume of distribution at steady state in C57BL/6J mouse at 20 umol/kg, iv and 20 umol/kg, po; format: ADME, organism-based; conditions: in vivo, read-out: Vdss
[9] = Ratio of Cmax in brain to plasma in C57BL/6J mouse at 20 umol/kg, iv and 20 umol/kg, po; format: ADME, organism-based; conditions: read-out: BPR
[10] = Fraction unbound in C57BL/6J mouse plasma; format: ADME, cell-free
[11] = Clearance in C57BL/6J mouse at 20 umol/kg, iv and 20 umol/kg, po; format: ADME, organism-based; conditions: in vivo
[12] = Tmax in C57BL/6J mouse brain at 20 umol/kg, iv and 20 umol/kg, po; format: ADME, organism-based

T1 sequence (Q99705 whole entry): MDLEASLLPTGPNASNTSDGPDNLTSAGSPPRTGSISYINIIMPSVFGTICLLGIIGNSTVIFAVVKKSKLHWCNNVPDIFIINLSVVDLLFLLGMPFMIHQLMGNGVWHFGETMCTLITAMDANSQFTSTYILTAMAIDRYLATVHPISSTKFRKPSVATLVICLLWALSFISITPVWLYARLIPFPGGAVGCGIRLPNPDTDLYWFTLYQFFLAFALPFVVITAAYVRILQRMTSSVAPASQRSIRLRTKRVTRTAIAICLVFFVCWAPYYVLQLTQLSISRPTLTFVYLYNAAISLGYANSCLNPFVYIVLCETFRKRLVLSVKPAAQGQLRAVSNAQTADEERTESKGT

pIC50 [1] | microsomal CLint [2] | SMILES | also measured
10.00 | 32 µL/min/mg | COc1ccc2c(C)cc(N[C@H]3CCC[C@H](NCc4ccsc4)C3)nc2c1 | pIC50 [3]: 9.00
8.05 |  | COc1cc(N[C@H]2CCC[C@H](NCc3ccsc3)C2)nc2ccccc12 | pIC50 [3]: 8.10
5.86 |  | COc1ccc2nc(N[C@H]3CCC[C@H](NCc4ccsc4)C3)c(C)cc2c1 | 
5.60 |  | CC(=O)N(C)c1ccc2nc(N[C@H]3CCC[C@H](NCc4ccsc4)C3)ccc2c1 | 
7.70 | < 12 µL/min/mg | COc1ccc2c(C)cc(N[C@H]3CC[C@H](NCc4cn(C)c5c(C#N)cccc45)C3)nc2c1 | pIC50 [3]: 6.90
7.89 | 59 µL/min/mg | COc1ccc2c(C)cc(N[C@H]3CCC[C@H](NCc4ccc(Cl)c(Cl)c4)C3)nc2c1 | 
7.46 |  | COc1ccc2nc(N[C@H]3C[C@@H]4C[C@H]3[C@@H](NCc3ccsc3)C4)cc(C)c2c1 | 
7.54 | 30 µL/min/mg | CN(C)c1cc(N[C@H]2CCC[C@H](NCc3ccsc3)C2)nc2ccccc12 | pIC50 [3]: 7.01
5.00 |  | N#Cc1cc(N[C@H]2CCC[C@H](NCc3ccsc3)C2)nc2ccccc12 | 
7.80 | 227 µL/min/mg | COc1ccc2c(C)cc(N[C@H]3CCC[C@H](NCc4ccc5nsnc5c4)C3)nc2c1 | 
6.97 |  | COc1ccc2nc(NCCCNC(=O)c3ccsc3)cc(C)c2c1 | 
5.64 |  | COc1ccc2nc(N(C)[C@H]3CC[C@H](NCc4ccsc4)C3)cc(C)c2c1 | 
5.32 | 68 µL/min/mg | FC(F)(F)c1cc(N[C@H]2CCC[C@H](NCc3ccsc3)C2)nc2ccccc12 | 
7.17 |  | c1ccc2nc(N[C@H]3CCC[C@H](NCc4ccsc4)C3)ccc2c1 | pIC50 [3]: 6.63
7.24 | 295 µL/min/mg | COc1ccc2nc(N[C@H]3CCC[C@H](NCc4ccsc4)C3)ccc2c1 | pIC50 [3]: 7.60
8.52 |  | COc1ccc2nc(N[C@H]3CCC[C@H](NCc4ccsc4)C3)cc(C)c2c1 | 
6.75 |  | COc1ccc2c(C)cc(N[C@H]3CCC[C@H](NCc4cn(C)nc4C)C3)nc2c1 | 
8.00 |  | COc1ccc2c(C)cc(N[C@H]3CCC[C@H](NCc4cccc5nsnc45)C3)nc2c1 | 
7.82 |  | COc1ccc2nc(NCCCNCc3ccsc3)cc(C)c2c1 | 
6.07 |  | CN(C)c1ccc2nc(N[C@H]3CCC[C@H](NCc4ccsc4)C3)ccc2c1 | 
5.44 |  | COc1ccc2nc(NCCNCc3ccsc3)cc(C)c2c1 | 
7.05 |  | COc1ccc2c(C)cc(N[C@H]3CCC[C@H](NCc4cnccn4)C3)nc2c1 | 
7.21 |  | COc1ccc2nc(N[C@H]3CC[C@H](NCc4ccsc4)C3)cc(C)c2c1 | 
8.15 | 60 µL/min/mg | Cc1cc(N[C@H]2CCC[C@H](NCc3ccsc3)C2)nc2ccccc12 | pIC50 [3]: 7.23
5.52 |  | COc1ccc2nc(NCC3CCCN(Cc4ccsc4)C3)cc(C)c2c1 (stereo not drawn) | 

pIC50 [1] | microsomal CLint [2] | SMILES | also measured
6.39 |  | COc1ccc2nc(N[C@@H]3CCC[C@@H](NCc4ccsc4)C3)cc(C)c2c1 | 
5.30 |  | COc1ccc2nc(N[C@@H]3C[C@@H]4C[C@H]3[C@H](NCc3ccsc3)C4)cc(C)c2c1 | 
8.05 | < 12 µL/min/mg | COc1ccc2c(C)cc(N[C@H]3CC[C@H](NCc4cn(C)c5ccccc45)C3)nc2c1 | pIC50 [3]: 7.07
7.30 | 269 µL/min/mg | COc1ccc2c(C)cc(N[C@H]3CCC[C@H](NCc4ccc(S(C)(=O)=O)cc4Cl)C3)nc2c1 | 
6.92 |  | COc1ccc2nc(N[C@H]3CC[C@H](N(C)Cc4ccsc4)C3)cc(C)c2c1 | 
7.15 | 12 µL/min/mg | COc1ccc2c(C)cc(N[C@H]3CC[C@H](NCc4cn(C)c5c4ccc4cccnc45)C3)nc2c1 | 
7.10 | 26 µL/min/mg | COc1ccc2c(C)cc(N[C@H]3CC[C@H](NCc4cn(C)c5ccc(OCc6ccccc6)cc45)C3)nc2c1 | 
7.54 | 20 µL/min/mg | COc1ccc2c(C)cc(N[C@H]3CC[C@H](NCc4cn(C)c5cccnc45)C3)nc2c1 | Cmax (Mus musculus): 0.5 µmol/kg; Tmax [4]: 24 h; Cmax [5]: 3.78 µM; bioavailability [6]: 100%; half-life [7]: 8.6 h; Vd [8]: 7.6 L/kg; Kp [9]: 0.13; fraction unbound [10]: 0.065; pIC50 [3]: 7.08; clearance [11]: 15 mL/min/kg; Tmax [12]: 0.26 h
 |  | COc1cc(N[C@H]2CCC[C@H](NCc3ccsc3)C2)nc2ccc(F)cc12 | pIC50 [3]: 7.05
< 4.48 |  | COc1ccc2nc(NCCCCNCc3ccsc3)cc(C)c2c1 | 
7.27 | 38 µL/min/mg | COc1cccc2nc(N[C@H]3CCC[C@H](NCc4ccsc4)C3)ccc12 | pIC50 [3]: 7.38
6.64 |  | COc1cc(N[C@H]2CCC[C@H](NCc3ccsc3)C2)nc2ccc(OC(C)C)cc12 | 
7.48 | < 12 µL/min/mg | COc1ccc2c(C)cc(N[C@H]3CC[C@H](NCc4cn(C)c5cc(C#N)ccc45)C3)nc2c1 | pIC50 [3]: 6.93
5.29 | 15 µL/min/mg | Clc1cccc2ccc(N[C@H]3CCC[C@H](NCc4ccsc4)C3)nc12 | 
7.24 | 52 µL/min/mg | COc1ccc2c(C)cc(N[C@H]3CCC[C@H](NCc4cn(C(=O)N(C)C)c5ccc(Cl)cc45)C3)nc2c1 | 
7.66 | 500 µL/min/mg | COc1ccc2c(C)cc(N[C@H]3CCC[C@H](NCc4cncc5ccccc45)C3)nc2c1 | 
5.67 |  | COc1ccc2nc(N3CCC(NCc4ccsc4)CC3)cc(C)c2c1 | 
6.43 |  | COc1ccc2nc(N[C@H]3C[C@H]4C[C@@H]3[C@@H](NCc3ccsc3)C4)cc(C)c2c1 | 
7.55 |  | COc1ccc(Br)c(CN[C@H]2CCC[C@H](Nc3cc(C)c4ccc(OC)cc4n3)C2)c1 | 
7.21 | 41 µL/min/mg | COc1ccc2c(C)cc(N[C@H]3CCC[C@H](NCc4cn(C)c5ccc(Br)cc45)C3)nc2c1 | 
7.82 | 64 µL/min/mg | COc1ccc2c(C)cc(N[C@H]3CCC[C@H](NCc4cccc(OC(F)(F)F)c4)C3)nc2c1 | 
6.24 |  | Clc1ccc2nc(N[C@H]3CCC[C@H](NCc4ccsc4)C3)ccc2c1 | 
7.41 | < 12 µL/min/mg | COc1ccc2c(C)cc(N[C@H]3CC[C@H](NCc4cn(C)c5ccc(C#N)cc45)C3)nc2c1 | 
8.30 | 12 µL/min/mg | COc1ccc2c(C)cc(N[C@H]3CC[C@H](NCc4cn(C)c5ccc(OC(F)F)cc45)C3)nc2c1 | pIC50 [3]: 7.46
